{"source": "patent US9463188B2", "about": "“Osteopontin production inhibitor containing dictyopyrone derivative or dihydrodictyopyrone derivative as active ingredient” (TOHOKU UNIVERSITY, priority 2013, dated 2016)", "key": {"[1]": {"system": "OPN production by human liver cancer-derived cell line HepG2", "assay": "OPN production by HepG2 cells (Human Osteopontin Immunoassay, per mg protein)", "type": "cell-based", "conditions": "2-day culture; for suppression of OPN production vs control group: significance level less than 1%", "method": "(§1) The confirmation test was performed in the following manner. The compound 3 wad added to a culture liquid containing cells of a human non-small cell lung cancer-derived cell line A549 or a human liver cancer-derived cell line HepG2, and the amount of OPN in culture supernatant after 2-day culture was measured using Human Osteopontin Immunoassay kit (R&D systems) and compared with the OPN amount of a compound 3-free group (control group).\n(§2) The compound 3 has also cell growth inhibitory effect. Therefore, in order to properly evaluate the OPN production-suppressing effect of the compound 3, 1×CCLR used in luciferase assay was added to cells remaining in each well after removal of culture supernatant to prepare a cell lysate, and the amount of protein in the cell lysate was measured using BCA Protein Assay Kit (Thermo Scientific). The influence of addition of the compound 3 on the amount of OPN production was evaluated by comparison of the amount of OPN per milligram of protein.\nFirst, A549 cells or HepG2 cells were suspended in DMEM medium containing 10% FCS and 1% P/S at 4×10^4 cells/mL to obtain a cell suspension, and 500 μL of the cell suspension was dispensed into each well of a 24-well plate. In order to perform the test in triplicate, 3 wells were prepared for a control group and 3 wells were prepared for each test compound-treated group at each concentration. The 24-well plate was incubated in a CO2 incubator (at 37° C. and 5% CO2) for 24±4 hours.\nThe 3.75 mmol/L compound 3 solution or the 7.5 mmol/L compound 3 solution was added in an amount of 2 μL to each well in which HepG2 cells were cultured. Only DMSO was added to each control well in an amount of 2 μL.\nThe 24-well plate was rocked back and forth and side to side to mix the solution in each well, and was then incubated in a CO2 incubator (at 37° C. and 5% CO2) for 48±4 hours. Then, the total amount of culture supernatant was transferred into a 1.5 mL tube, and 500 μL of D-PBS(−) was added to each well in which cells are remained. […]"}, "[2]": {"system": "OPN production by human non-small cell lung cancer-derived cell line A549", "assay": "OPN production by A549 cells (Human Osteopontin Immunoassay, per mg protein)", "type": "cell-based", "conditions": "2-day culture", "method": "as §1, §2\nFirst, A549 cells or HepG2 cells were suspended in DMEM medium containing 10% FCS and 1% P/S at 4×10^4 cells/mL to obtain a cell suspension, and 500 μL of the cell suspension was dispensed into each well of a 24-well plate. In order to perform the test in triplicate, 3 wells were prepared for a control group and 3 wells were prepared for each test compound-treated group at each concentration. […]"}}}
{"compound": "CCCCCCCCCCCC(=O)[C@H]1C(=O)O[C@@H](C)C[C@@H]1C", "note": "[Chemical formula 3]", "values": [{"measurement": "suppression of OPN production vs control group", "setting": "[1]; 15 μmol/L", "result": "significantly suppressed"}, {"measurement": "amount of OPN produced relative to control group", "setting": "[1]; 30 μmol/L", "result": "reduced to half or less"}, {"measurement": "suppression of OPN production vs control group", "setting": "[1]; 30 μmol/L", "result": "significantly suppressed"}, {"measurement": "suppression of OPN production vs control group", "setting": "[2]; 30 μmol/L, significance level less than 5%", "result": "significantly suppressed"}, {"measurement": "suppression of OPN production vs control group", "setting": "[2]; 60 μmol/L, significance level less than 1%", "result": "significantly suppressed"}]}
